How the values were obtained:
db/db mice [1] = assay: Chronic oral treatment of diabetic db/db mice; format: in vivo; conditions: for food intake and body weight: 6-week once-daily oral treatment; for inhibition of glycemic excursion, oral glucose tolerance test, vs vehicle: glucose 3 g/kg
Method: Animal experimentation was conducted in accordance with the regulations adopted by the Animal Care and Use Committee, Shanghai Institute of Materia Medica, Chinese Academy of Sciences (approval number: SIMM-2012-07-WMW-04). Male C57BL/KsJ db/db mice (Model Animal Research Center of Nanjing University, Nanjing, China) were housed in a temperature-controlled room (22±2°C), with a light/dark cycle of 12 h. At 6 weeks of age, mice were randomly assigned to chronic treatments. The experimental groups and respective doses of compounds were as follows: (1) 0.5% w/v sodium carboxyl methyl cellulose (CMC), (2) 10 mg/kg AR-231453, (3) 1 mg/kg sitagliptin (Beijing Huikang Boyuan Chemical Technology Co., Ltd., Beijing, China), (4) 10 mg/kg AR-231453 plus 1 mg/kg sitagliptin, (5) 100 mg/kg MW1219, and (6) 100 mg/kg MW1219 plus 1 mg/kg sitagliptin. Each regimen was administered once daily by oral gavaging for 6 weeks. Body weight and food intake were recorded every other day and fasting glucose levels measured every week. Oral glucose tolerance test was performed in overnight-fasting mice every other week. After six weeks of treatment, HbA1c were quantified, plasma insulin and GLP-1 contents were measured using respective ELISA kit. For oral glucose tolerance test, overnight fasting mice (n = 6/treatment) were given compounds orally at desired doses and after 30 min, an oral glucose bonus (3 g/kg) was delivered. Plasma glucose levels were determined at desired time points over a 2-h period using blood collected from the tail vein. For circulating GLP-1 analysis, compounds were administered orally to fasting animals followed by an oral glucose bolus (3 g/kg) 30 min later. Blood was drawn 2 min thereafter in Eppendorf tubes containing EDTA and a DPP-4 inhibitor. Plasma samples were obtained via centrifugation and assayed for active GLP-1 by the ELISA kit. Blood was collected again after 20 min to determine insulin levels.

human GPR119 [2] = target: T1, human GPR119 (Homo sapiens, UniProt Q8TDV5); assay: Reporter gene assay (CRE-luciferase) in HEK293-hGPR119 cells; format: cell-based; conditions: for allosteric modulation of OEA potency: compound added to OEA concentration response
T1 construct: expressed in transfected cells
T1 sequence (Q8TDV5 1-335): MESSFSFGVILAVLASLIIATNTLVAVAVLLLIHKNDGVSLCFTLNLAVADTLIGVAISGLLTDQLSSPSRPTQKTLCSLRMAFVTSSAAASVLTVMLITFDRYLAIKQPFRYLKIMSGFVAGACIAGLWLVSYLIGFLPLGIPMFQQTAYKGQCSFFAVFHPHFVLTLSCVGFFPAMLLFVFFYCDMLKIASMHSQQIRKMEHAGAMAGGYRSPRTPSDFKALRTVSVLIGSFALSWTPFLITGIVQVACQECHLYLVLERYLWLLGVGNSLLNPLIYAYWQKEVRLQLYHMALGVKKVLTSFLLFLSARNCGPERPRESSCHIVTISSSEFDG
Method: (§1) HEK293 cells stably transfected with a human GPR119 vector and a cAMP response element-driven luciferase reporter plasmid (HEK293-hGPR119 cells) and HEK293 cells transfected only with a cAMP response element-driven luciferase reporter plasmid (control HEK293 cells) were cultured in Dulbecco’s modified Eagle medium (DMEM) (Invitrogen, Carlsbad, CA, USA) supplemented with 10% fetal bovine serum (FBS), 4.5 g/l glucose, 100 units/ml penicillin and 100 µg/ml streptomycin at 37°C in 5% CO2. MIN6 cells were maintained in DMEM containing 15% FBS, 4.5 g/l glucose, 100 units/ml penicillin and 100 µg/ml streptomycin at 37°C in 5% CO2. GLUTag cells were maintained in DMEM containing 10% FBS, 1 g/l glucose, 100 units/ml penicillin and 100 µg/ml streptomycin at 37°C in 5% CO2.
(§2) HEK293-hGPR119 cells or control HEK293 cells were seeded onto 384-well plates with a density of 16,000 cells per well. At the time of assaying, AR-231453 or test compounds dissolved in DMSO were added. After 42 h of incubation at 37°C and 5% CO2 in a cell culture incubator, cells were lysed and quantified for luciferase activity using the Steady-Glo luciferase assay system (Promega, Madison, WI, USA) according to manufacturer’s protocol. For allosteric activity studies, test compounds were 5-fold serially diluted and added to AR-231453 or OEA concentration response reaction. Luciferase signals were determined with EnVision (PerkinElmer, Boston, MA, USA).

human GPR119 [3] = target: T1, human GPR119; assay: cAMP accumulation assay (HTRF) in HEK293-hGPR119 cells; format: cell-based
Method: as §1
cAMP accumulation was measured using HTRF-cAMP dynamic kit (Cisbio International, Gif sur Yvette Cedex, France) according to manufacturer's instructions. Briefly, HEK293-hGPR119 cells were suspended in assay buffer (DMEM, 1 mM 3-isobutyl-1-methylxanthine) and transferred to 384-well microplates (Greiner Bio-One, Frickenhausen, Germany) at a density of 16,000 cells/well. Plates were incubated for 30 min at 37°C before adding test compounds. After treatment for 30 min at 37°C, the reactions were stopped by addition of lysis buffer containing HTRF reagents. Plates were then incubated for 60 min at room temperature, and time-resolved FRET signals were measured after excitation at 320 nm. Both the emission signal from the europium cryptate-labeled anti-cAMP antibody (620 nm) and the FRET signal resulting from the labeled cAMP-d2 (665 nm) were detected by EnVision (PerkinElmer).

MIN6 cells = assay: Insulin secretion assay in MIN6 cells; format: cell-based, mouse; conditions: for glucose-stimulated insulin secretion vs DMSO control: 16.8 mM glucose, 1 h, MW1219 at 15 µM and 50 µM (P<0.05), OEA at 10 µM (P<0.01)
Method: as §1
Insulin-secreting MIN6 cells were plated in 96-well plates (20,000 cells per well) for 2 days. On the day of experiment, culture medium was aspirated and cells were washed twice with KRBH buffer. Cells were then placed at 37°C for 30 min in KRBH containing 2.8 mM glucose. Test compounds were dissolved in either 2.8 or 16.8 mM glucose medium and added to cells for 1 h. The supernatants were collected by centrifugation at 800×g for insulin measurements. Insulin content in the supernatant was determined using an insulin ELISA kit from Linco Research Laboratory (Billerica, MA, USA).
(§3) MIN6 and GLUTag cells were cultured as described above. siRNA targeting murine GPR119 coding sequences (Forward: 5′-[…]-3′, Reverse: 5′-[…]-3′) was purchased from GenePharma company (Shanghai, China). Transfection was performed using siRNA and Lipofectamine 2000 (Invitrogen, Burlington, ON, Canada) as instructed by the manufacturer. After 36 h, knockdown efficiency of siRNA was quantified by real-time RT-PCR, and cells were used for secretion experiments.

GLUTag cells = assay: GLP-1 release assay in GLUTag cells; format: cell-based, murine; conditions: for GLP-1 release, low glucose medium: 2.8 mM glucose
Method: as §1
GLUTag cells were plated in 24-well plates on day 1 in low glucose DMEM supplemented with 10% FBS. Culture medium was replaced with DMEM (2.8 mM glucose) supplemented with 10% FBS 24 h before analysis of GLP-1 release. On the day of experiment, cells were washed twice with PBS and incubated with different compounds at desired concentrations in serum-free DMEM with 2.8 mM or 16.8 mM glucose for 1 h at 37°C and 5% CO2. The supernatants were collected by centrifugation for 3 min. GLP-1 in the supernatant was detected by a GLP-1 ELISA kit (Linco Research Laboratory).
as §3

control HEK293 cells [4] = assay: Reporter gene assay in control HEK293 cells (no GPR119); format: cell-based
Method: as §1
as §2, with “For allosteric activity studies, test compounds were 5-fold serially diluted and added to AR-231453 or OEA concentration response reaction.” left out

control HEK293 cells [5] = assay: cAMP accumulation assay in control HEK293 cells; format: cell-based
Method: as §1
cAMP accumulation was measured using HTRF-cAMP dynamic kit (Cisbio International, Gif sur Yvette Cedex, France) according to manufacturer's instructions. […] Plates were then incubated for 60 min at room temperature, and time-resolved FRET signals were measured after excitation at 320 nm. Both the emission signal from the europium cryptate-labeled anti-cAMP antibody (620 nm) and the FRET signal resulting from the labeled cAMP-d2 (665 nm) were detected by EnVision (PerkinElmer).

db/db mice [6] = test system: db/db mice; design: method as in the literature (reference number not given); conditions: ref the literature (reference number not given); cited from earlier work
[7] = MW1219 100 mg/kg, sitagliptin 1 mg/kg
[8] = HEK293-hGPR119 cells, 42 h incubation, read-out: EC50, luciferase expression
[9] = MW1219 0 μM (Table S3), read-out: EC50 of OEA
[10] = in presence of MW1219 1 μM, read-out: EC50 of OEA
[11] = in presence of MW1219 10 μM, read-out: EC50 of OEA
[12] = reporter gene and cAMP accumulation assays
[13] = 100 mg/kg MW1219 plus 1 mg/kg sitagliptin, oral, once daily, 6 weeks

N[C@@H](CC(=O)N1CCn2c(nnc2C(F)(F)F)C1)Cc1cc(F)c(F)cc1F [sitagliptin, reference compound]
HbA1c change (db/db mice [1]; 1 mg/kg sitagliptin, oral, once daily, 6 weeks): no difference | food intake and body weight (db/db mice [1]; [7]): failed to suppress food intake and decrease body weight | plasma GLP-1 levels (db/db mice [1]; sitagliptin 1 mg/kg): raised plasma GLP-1 levels

CCCCCCCC/C=C\CCCCCCCC(=O)NCCO [OEA, oleoylethanolamide]
efficacy on GPR119 (human GPR119 [2]; 1 µM OEA, HTS luciferase assay): 15% | EC50 (human GPR119 [2]; AR-231453 0 nM (Table S1), read-out: EC50 of OEA): 2810 ± 210 nM | EC50 (human GPR119 [2]; [8]): 2780 ± 180 nM | EC50 (human GPR119 [2]; [9]): 2890 ± 610 nM | EC50 (human GPR119 [2]; [10]): 3090 ± 680 nM | EC50 (human GPR119 [2]; [11]): 2560 ± 470 nM | allosteric modulation of AR-231453 potency (human GPR119 [2]; reporter gene and cAMP accumulation assays, compound added to AR-231453 concentration response): did not alter the potency of AR-231453 | EC50 (human GPR119 [3]; [9]): 1690 ± 170 nM | EC50 (human GPR119 [3]; [10]): 1830 ± 240 nM | EC50 (human GPR119 [3]; [11]): 1410 ± 110 nM | glucose-stimulated insulin secretion vs DMSO control (MIN6 cells): elevated insulin significantly | GLP-1 release, low glucose medium (GLUTag cells; 1 h): Neither MW1219 nor OEA exhibited any effect

CCOC(=O)c1ccc2oc3ccc(O)cc3c(=O)c2c1 [MW1219]
efficacy relative to forskolin in the reporter gene assay (human GPR119 [2]; HEK293-hGPR119 cells): same level of efficacy as forskolin | EC50 (human GPR119 [2]; [8]): 960 ± 80 nM | allosteric modulation of OEA potency (human GPR119 [2]; [12]): not PAM for OEA | activity on luciferase expression in the absence of GPR119 (control HEK293 cells [4]): did not show any activity | efficacy compared to forskolin (control HEK293 cells [4]; Figure 2C): 10% | efficacy, cAMP accumulation, relative to forskolin (human GPR119 [3]; 50 µM MW1219, HEK293-hGPR119 cells): about 40% | cAMP increase in control cells (control HEK293 cells [5]): had no influence | insulin secretion after GPR119 siRNA knockdown (MIN6 cells; 15 µM MW1219, GPR119 siRNA-treated MIN6 cells): suppressed by siRNA | insulin release under low glucose (MIN6 cells; 2.8 mM glucose): no effect | glucose-stimulated insulin secretion vs DMSO control (MIN6 cells): elevated insulin significantly | GLP-1 release after GPR119 siRNA knockdown (GLUTag cells; 20 µM and 50 µM MW1219, siRNA-treated GLUTag cells): indistinguishable from the medium control | GLP-1 release, low glucose medium (GLUTag cells; 1 h): Neither MW1219 nor OEA exhibited any effect | GLP-1 released to supernatant, high glucose (GLUTag cells; 16.8 mM glucose, 1 h): elevated dose-dependently | circulating GLP-1 levels (db/db mice [1]; 100 mg/kg MW1219, 6 weeks, 2 min after oral glucose 3 g/kg): not elevated | insulin response to a glucose bolus (db/db mice [1]; 100 mg/kg MW1219, 6 weeks, 20 min after oral glucose 3 g/kg): notably more pronounced than that of controls | inhibition of glycemic excursion, oral glucose tolerance test, vs vehicle (db/db mice [1]; 100 mg/kg MW1219, after 6 weeks, P<0.05): 8.6% | reduction of fasting blood glucose vs control (db/db mice [1]; 100 mg/kg MW1219, oral, once daily, 6 weeks): 16% | HbA1c decrease compared with the control (db/db mice [1]; 100 mg/kg MW1219, oral, once daily, 6 weeks, P<0.05): 0.67% | inhibition of glycemic excursion, oral glucose tolerance test, vs vehicle (db/db mice [1]; 100 mg/kg MW1219 plus 1 mg/kg sitagliptin, after 6 weeks, P<0.001): 18.6% | HbA1c change (db/db mice [1]; [13]): no difference | fasting blood glucose vs mice that received sitagliptin alone (db/db mice [1]; [13]): significantly lower | reduction of fasting blood glucose vs control (db/db mice [1]; [13]): 29% | food intake and body weight (db/db mice [1]; [7]): neither food intake inhibition nor weight loss | fasting plasma glucose levels and glucose tolerance, pilot dose-response studies (db/db mice [1]; MW1219 100 mg/kg, data not shown): improved both fasting plasma glucose levels and glucose tolerance

CC(C)c1noc(C2CCN(c3ncnc(Nc4ccc(S(C)(=O)=O)cc4F)c3[N+](=O)[O-])CC2)n1 [AR-231453]
allosteric modulation of OEA potency (human GPR119 [2]; [12]): without affecting its potency | EC50 (human GPR119 [3]; OEA 0 μM (Table S2), read-out: EC50 of AR-231453): 1.19 ± 0.16 nM | feeding and weight gain (db/db mice [1]; AR-231453 in combination with sitagliptin): did not induce noticeable effects | reduction of food intake (db/db mice [6]): only at very high doses
